In publication PMC10586543 (Advanced functional materials, 2023):

How the values were obtained:
human recombinant MMP-9 = human recombinant MMP-9 (Homo sapiens, UniProt P14780); assay: In vitro specificity reaction with off-target protease; settings: free peptide; 15 nM human recombinant MMP-9; TCNB buffer; 37 °C, 1 h; fluorescence (Figure S2)
human α-thrombin = human α-thrombin (Homo sapiens, UniProt P00734); assay: as above; settings: free peptide; 13.5 nM human α-thrombin; TCNB buffer; 37 °C, 1 h; fluorescence (Figure S2)

human recombinant MMP-9, sequence (P14780 107-444 limits assumed): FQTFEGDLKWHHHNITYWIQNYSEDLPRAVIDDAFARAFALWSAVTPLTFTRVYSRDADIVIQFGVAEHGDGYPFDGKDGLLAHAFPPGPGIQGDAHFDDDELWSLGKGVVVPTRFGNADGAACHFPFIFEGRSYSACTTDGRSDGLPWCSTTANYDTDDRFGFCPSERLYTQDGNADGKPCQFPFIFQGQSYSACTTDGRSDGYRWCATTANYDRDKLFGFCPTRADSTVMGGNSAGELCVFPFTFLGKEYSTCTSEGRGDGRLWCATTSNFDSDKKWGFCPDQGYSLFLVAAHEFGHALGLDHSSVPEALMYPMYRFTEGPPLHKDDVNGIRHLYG

Substance: Biotin-GGSGG-K(5FAM)-QEVYGAMP-K(CPQ2)-C-NH2 [calpain substrate peptide]
- activation after incubation with MMP9 (human recombinant MMP-9): did not activate
- activation after incubation with α-thrombin (human α-thrombin): did not activate
